Entries after “also recorded” stand apart in the source; their conditions may differ.
Tests used:
[1] = cited from earlier work
Patients with vitiligo [2] = experiment: Clinical efficacy of topical bimatoprost solution for treatment of vitiligo: degree of repigmentation; assay type: in vivo, human; settings: for number of patients with Complete repigmentation (100%) / number of patients with Excellent repigmentation (75-99%) / number of patients with Marked repigmentation (50-74%) / number of patients with Moderate repigmentation (25-49%) / number of patients with Nil/mild repigmentation (less than 25%) / Repigmentation of body sites: number with Complete repigmentation (100%) / Repigmentation of body sites: number with Excellent repigmentation (75-99%) / Repigmentation of body sites: number with Marked repigmentation (50-74%) / Repigmentation of body sites: number with Moderate repigmentation (25-49%) / Repigmentation of body sites: number with Nil/mild repigmentation (less than 25%): 0.03% solution topically twice a day, 4 months
Protocol: 20 Patients with vitiligo were treated with topical bimatoprost solution for 4 months to elucidate its efficacy and tolerability in stable vitiligo. The solution contained bimatoprost in a concentration of 0.3 mg/mL (0.03%), benzalkonium chloride in a concentration of 0.05 mg/mL, and water. The solution has a pH of between 6.8 and 7.8, and contains sodium chloride, a dibasic sodium phosphate/citric acid buffer, and sodium hydroxide and/or hydrochloric acid to adjust the pH. The subjects had suffered from vitiligo for a period of between 8 and 80 months. The average period of depigmentation for the patients was 26.7 months. All the patients were examined by an independent observer. The percentage of repigmentation in form of color or size changes and folliculocentric/peripheral repigmentation were observed. […] Specifically, Nil/Mild repigmentation means that the skin has undergone less than 25% repigmentation, i.e., less than 25% of the skin surface has repigmented or, if repigmentation is observed, the skin has regained less than 25% of its natural color. Moderate repigmentation means that the skin has undergone 25-49% repigmentation, as measured by repigmented surface are and/or skin color. Marked repigmentation means that the skin has undergone 50-74% repigmentation, and excellent repigmentation means that the skin has undergone 75-99% repigmentation. Complete response means that repigmented skin lesions from vitiligo are indistinguishable from skin which has never been depigmented. The repigmentation effect of the composition starts rapidly within one to two months after starting the treatment. Topical treatment with bimatoprost is continued for a period of at least two months. If no response is observed to treatment with topical bimatoprost, treatment is stopped at the end of two months. If a mild or moderate response to treatment with topical bimatoprost is observed, therapy is continued for at least 4 months, while observing the patient for any further delayed improvement. In cases where complete or excellent response to topical bimatoprost is observed, treatment is stopped to determine whether relapse, i.e., whether loss of pigmentation is observed upon cessation of bimatoprost therapy. The frequency of application of the topical bimatoprost as an aqueous solution is twice a day.

Patients with vitiligo [3] = experiment: Follow-up for 6 months after stopping bimatoprost treatment: positive response and relapse; assay type: in vivo, human; settings: for Response positive (at least 25% repigmentation), number of patients / Response positive, ratio to total number of patients: 6 months after stopping therapy; for Relapse/loss of pigment, number of patients / Relapse/loss of pigment, percentage of patients with positive response: 6 months following cessation of therapy
From the text: The hypothetical mechanism of repigmentation would be of increased melanogenesis in dermal melanocytes together with increased transfer of melanin granules to the basal melanocytes.

Patients with vitiligo [4] = experiment: Tolerability / side effects during therapy with topical bimatoprost; assay type: in vivo, human
Protocol: 20 Patients with vitiligo were treated with topical bimatoprost solution for 4 months to elucidate its efficacy and tolerability in stable vitiligo. The solution contained bimatoprost in a concentration of 0.3 mg/mL (0.03%), benzalkonium chloride in a concentration of 0.05 mg/mL, and water. The solution has a pH of between 6.8 and 7.8, and contains sodium chloride, a dibasic sodium phosphate/citric acid buffer, and sodium hydroxide and/or hydrochloric acid to adjust the pH.
All the patients were examined by an independent observer. The percentage of repigmentation in form of color or size changes and folliculocentric/peripheral repigmentation were observed.

[5] = site Mucosae (mucosal vitiligo or non-mucosal vitiligo progressed to mucosal surfaces)
[6] = vitiliginous lesions on the face or neck
[7] = vitiliginous lesions on the trunk or extremities

SMILES: CCNC(=O)CCCC=CCC1C(O)CC(O)C1C=CC(O)CCc1ccccc1 (stereo not drawn) [bimatoprost, 7-[3,5-dihydroxy-2-(3-hydroxy-5-phenyl-pent-1-enyl)-cyclopentyl]-N-ethyl-hept-5-enamide]
- solubility in water [1]: only slightly soluble; also recorded: very low
- complete clearance of vitiligo lesions (100% repigmentation), percentage of patients (Patients with vitiligo [2]; 20 patients): 30%
- marked to excellent repigmentation (50-99%), percentage of patients (Patients with vitiligo [2]; 20 patients): 55%
- patients in whom repigmentation was observed, percentage (Patients with vitiligo [2]; 20 patients, all types of vitiligo): 70%
- number of patients with Complete repigmentation (100%) (Patients with vitiligo [2]; Focal vitiligo): 1
- number of patients with Excellent repigmentation (75-99%) (Patients with vitiligo [2]; Focal vitiligo): 4
- number of patients with Marked repigmentation (50-74%) (Patients with vitiligo [2]; Focal vitiligo): 1
- number of patients with Moderate repigmentation (25-49%) (Patients with vitiligo [2]; Focal vitiligo): 0
- number of patients with Nil/mild repigmentation (less than 25%) (Patients with vitiligo [2]; Focal vitiligo): 0
- number of patients with Complete repigmentation (100%) (Patients with vitiligo [2]; Mucosal vitiligo): 0
- number of patients with Excellent repigmentation (75-99%) (Patients with vitiligo [2]; Mucosal vitiligo): 0
- number of patients with Marked repigmentation (50-74%) (Patients with vitiligo [2]; Mucosal vitiligo): 0
- number of patients with Moderate repigmentation (25-49%) (Patients with vitiligo [2]; Mucosal vitiligo): 0
- number of patients with Nil/mild repigmentation (less than 25%) (Patients with vitiligo [2]; Mucosal vitiligo): 2
- number of patients with Complete repigmentation (100%) (Patients with vitiligo [2]; Segmental vitiligo): 1
- number of patients with Excellent repigmentation (75-99%) (Patients with vitiligo [2]; Segmental vitiligo): 2
- number of patients with Marked repigmentation (50-74%) (Patients with vitiligo [2]; Segmental vitiligo): 1
- number of patients with Moderate repigmentation (25-49%) (Patients with vitiligo [2]; Segmental vitiligo): 0
- number of patients with Nil/mild repigmentation (less than 25%) (Patients with vitiligo [2]; Segmental vitiligo): 0
- mean onset of pigmentation after initiation of therapy (Patients with vitiligo [2]; all patients): 2 months
- patients treated with at least 50% repigmentation (Patients with vitiligo [2]; all patients treated): 75%
- response of lesions, in words (Patients with vitiligo [2]; lesions on mucosal surfaces or on the extremities): respond poorly
- vitiliginous lesions showing at least 50% repigmentation (Patients with vitiligo [2]; lesions on the face and neck): all vitiliginous lesions
- vitiliginous lesions showing at least 50% repigmentation (Patients with vitiligo [2]; lesions on the trunk): 66%
- repigmentation commencing after initiation of therapy (Patients with vitiligo [2]; new patients (vitiligo for 6 months or less)): four to six
- patients in whom repigmentation was observed, number (Patients with vitiligo [2]; out of 20 patients, all types of vitiligo): 14
- repigmentation, in words (Patients with vitiligo [2]; remaining patients with generalized vitiligo): little or no repigmentation
- patients exhibiting at least 50% repigmentation (at least marked) (Patients with vitiligo [2]; segmental or focal vitiligo): all patients
- Repigmentation of body sites: number with Complete repigmentation (100%) (Patients with vitiligo [2]; site Extremities): 0
- Repigmentation of body sites: number with Excellent repigmentation (75-99%) (Patients with vitiligo [2]; site Extremities): 0
- Repigmentation of body sites: number with Marked repigmentation (50-74%) (Patients with vitiligo [2]; site Extremities): 0
- Repigmentation of body sites: number with Moderate repigmentation (25-49%) (Patients with vitiligo [2]; site Extremities): 2
- Repigmentation of body sites: number with Nil/mild repigmentation (less than 25%) (Patients with vitiligo [2]; site Extremities): 2
- Repigmentation of body sites: number with Complete repigmentation (100%) (Patients with vitiligo [2]; site Head & neck): 4
- Repigmentation of body sites: number with Excellent repigmentation (75-99%) (Patients with vitiligo [2]; site Head & neck): 4
- Repigmentation of body sites: number with Marked repigmentation (50-74%) (Patients with vitiligo [2]; site Head & neck): 2
- Repigmentation of body sites: number with Moderate repigmentation (25-49%) (Patients with vitiligo [2]; site Head & neck): 0
- Repigmentation of body sites: number with Nil/mild repigmentation (less than 25%) (Patients with vitiligo [2]; site Head & neck): 0
- Repigmentation of body sites: number with Complete repigmentation (100%) (Patients with vitiligo [2]; [5]): 0
- Repigmentation of body sites: number with Excellent repigmentation (75-99%) (Patients with vitiligo [2]; [5]): 0
- Repigmentation of body sites: number with Marked repigmentation (50-74%) (Patients with vitiligo [2]; [5]): 0
- Repigmentation of body sites: number with Moderate repigmentation (25-49%) (Patients with vitiligo [2]; [5]): 2
- Repigmentation of body sites: number with Nil/mild repigmentation (less than 25%) (Patients with vitiligo [2]; [5]): 2
- Repigmentation of body sites: number with Complete repigmentation (100%) (Patients with vitiligo [2]; site Trunk): 0
- Repigmentation of body sites: number with Excellent repigmentation (75-99%) (Patients with vitiligo [2]; site Trunk): 2
- Repigmentation of body sites: number with Marked repigmentation (50-74%) (Patients with vitiligo [2]; site Trunk): 2
- Repigmentation of body sites: number with Moderate repigmentation (25-49%) (Patients with vitiligo [2]; site Trunk): 0
- Repigmentation of body sites: number with Nil/mild repigmentation (less than 25%) (Patients with vitiligo [2]; site Trunk): 2
- start of the repigmentation effect after starting the treatment (Patients with vitiligo [2]; topical, twice a day): one to two
- number of patients with Complete repigmentation (100%) (Patients with vitiligo [2]; vitiligo Vulgaris): 2
- number of patients with Excellent repigmentation (75-99%) (Patients with vitiligo [2]; vitiligo Vulgaris): 2
- number of patients with Marked repigmentation (50-74%) (Patients with vitiligo [2]; vitiligo Vulgaris): 1
- number of patients with Moderate repigmentation (25-49%) (Patients with vitiligo [2]; vitiligo Vulgaris): 0
- number of patients with Nil/mild repigmentation (less than 25%) (Patients with vitiligo [2]; vitiligo Vulgaris): 3
- repigmentation, in words (Patients with vitiligo [2]; vitiligo restricted to the mucosal surfaces or to the extremities): little or no repigmentation
- patients exhibiting at least 50% repigmentation (at least marked) (Patients with vitiligo [2]; vitiligo vulgaris (generalized vitiligo)): More than 60%
- Response positive (at least 25% repigmentation), number of patients (Patients with vitiligo [3]; Extremities, 4 patients): 2
- Response positive, ratio to total number of patients (Patients with vitiligo [3]; Extremities, 4 patients): 50%
- Relapse/loss of pigment, number of patients (Patients with vitiligo [3]; Extremities): 1
- Relapse/loss of pigment, percentage of patients with positive response (Patients with vitiligo [3]; Extremities): 50%
- Response positive (at least 25% repigmentation), number of patients (Patients with vitiligo [3]; Face and neck, 10 patients): 10
- Response positive, ratio to total number of patients (Patients with vitiligo [3]; Face and neck, 10 patients): 100%
- Relapse/loss of pigment, number of patients (Patients with vitiligo [3]; Face and neck): 1
- Relapse/loss of pigment, percentage of patients with positive response (Patients with vitiligo [3]; Face and neck): 10%
- Response positive (at least 25% repigmentation), number of patients (Patients with vitiligo [3]; Focal, 6 patients): 6
- Response positive, ratio to total number of patients (Patients with vitiligo [3]; Focal, 6 patients): 100%
- Relapse/loss of pigment, number of patients (Patients with vitiligo [3]; Focal): 0
- Response positive (at least 25% repigmentation), number of patients (Patients with vitiligo [3]; Mucosal, 2 patients): 0
- Relapse/loss of pigment, number of patients (Patients with vitiligo [3]; Mucosal): 0
- Response positive (at least 25% repigmentation), number of patients (Patients with vitiligo [3]; Segmental, 4 patients): 4
- Response positive, ratio to total number of patients (Patients with vitiligo [3]; Segmental, 4 patients): 100%
- Relapse/loss of pigment, number of patients (Patients with vitiligo [3]; Segmental): 0
- Response positive (at least 25% repigmentation), number of patients (Patients with vitiligo [3]; Trunk, 6 patients): 4
- Response positive, ratio to total number of patients (Patients with vitiligo [3]; Trunk, 6 patients): 66%
- Relapse/loss of pigment, number of patients (Patients with vitiligo [3]; Trunk): 2
- Relapse/loss of pigment, percentage of patients with positive response (Patients with vitiligo [3]; Trunk): 50%
- Response positive (at least 25% repigmentation), number of patients (Patients with vitiligo [3]; Vulgaris, 8 patients): 4
- Response positive, ratio to total number of patients (Patients with vitiligo [3]; Vulgaris, 8 patients): 50%
- Relapse/loss of pigment, number of patients (Patients with vitiligo [3]; Vulgaris): 1
- Relapse/loss of pigment, percentage of patients with positive response (Patients with vitiligo [3]; Vulgaris): 25%
- patients exhibiting a positive response 6 months after stopping therapy (Patients with vitiligo [3]; focal or segmental vitiligo): 100%
- patients with positive response showing measurable depigmentation after 6 months (Patients with vitiligo [3]; focal or segmental vitiligo): none
- patients exhibiting a positive response 6 months after stopping therapy (Patients with vitiligo [3]; generalized vitiligo (vitiligo vulgaris), eight patients): 50%
- patients exhibiting a positive response 6 months after stopping therapy, number (Patients with vitiligo [3]; generalized vitiligo (vitiligo vulgaris), of eight patients): four
- patients with positive response showing measurable depigmentation after 6 months, number (Patients with vitiligo [3]; generalized vitiligo, of four responders): one
- patients exhibiting a positive response 6 months after stopping therapy (Patients with vitiligo [3]; [6]): 100%
- patients with positive response showing measurable depigmentation after 6 months (Patients with vitiligo [3]; [6]): none
- patients exhibiting a positive response 6 months after stopping therapy (Patients with vitiligo [3]; [7]): 60%
- patients with positive response showing measurable depigmentation after 6 months (Patients with vitiligo [3]; [7]): 60%
- severe adverse reactions during the trial (Patients with vitiligo [4]; 20 patients, 0.03% solution topically, 4 months): No severe adverse reactions
- most commonly observed side effect (Patients with vitiligo [4]; after application, especially on the lips): transient burning sensation
- incidence of side-effects during therapy (Patients with vitiligo [4]; topical, 20 patients): 20%
- severity of side effects (Patients with vitiligo [4]; topical, 20 patients): mild
